Several values for one entry are separate records, joined by “and”; a condition that tells them apart may be missing. Equal values may be shown once. Toxic doses and inconclusive results are not listed. Cut-off read from the data, not from the text of the source: active = T/C of 150% or more; inactive = T/C below 125%.
Tested on: L1210 leukemia ip in BDF1 mice, survival T/C
Experiment: NCI In Vivo Anticancer Drug Screen. Data for tumor model L1210 Leukemia (intraperitoneal) in B6D2F1 (BDF1) mice
Conditions: endpoint: mean survival time, higher = longer survival
Method in brief: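 Antitumor effect is assessed in tumor-bearing animals. Survival in the compound arm is compared with a vehicle-dosed control arm and expressed as their quotient.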

[1] = dose: 100.0 mg/kg/injection, schedule: Q01DX001 (ip), vehicle: carboxymethylcellulose (CMC)
[2] = dose: 200.0 mg/kg/injection, schedule: Q01DX001 (ip), vehicle: carboxymethylcellulose (CMC)
[3] = dose: 400.0 mg/kg/injection, schedule: Q01DX001 (ip), vehicle: carboxymethylcellulose (CMC)
[4] = dose: 100.0 mg/kg/injection, schedule: Q01DX001 (ip), vehicle: saline
[5] = dose: 200.0 mg/kg/injection, schedule: Q01DX001 (ip), vehicle: saline
[6] = dose: 400.0 mg/kg/injection, schedule: Q01DX001 (ip), vehicle: saline
[7] = dose: 100.0 mg/kg/injection, schedule: Q04DX003 (ip), vehicle: saline with Tween-80
[8] = dose: 200.0 mg/kg/injection, schedule: Q04DX003 (ip), vehicle: saline with Tween-80
[9] = dose: 400.0 mg/kg/injection, schedule: Q04DX003 (ip), vehicle: saline with Tween-80
[10] = dose: 100.0 mg/kg/injection, schedule: Q04DX003 (ip), vehicle: Klucel (hydroxypropylcellulose) (HPC)
[11] = dose: 200.0 mg/kg/injection, schedule: Q04DX003 (ip), vehicle: Klucel (hydroxypropylcellulose) (HPC)
[12] = dose: 400.0 mg/kg/injection, schedule: Q04DX003 (ip), vehicle: Klucel (hydroxypropylcellulose) (HPC)
[13] = dose: 100.0 mg/kg/injection, schedule: Q01DX001 (ip), vehicle: Klucel (hydroxypropylcellulose) (HPC)
[14] = dose: 200.0 mg/kg/injection, schedule: Q01DX001 (ip), vehicle: Klucel (hydroxypropylcellulose) (HPC)
[15] = dose: 400.0 mg/kg/injection, schedule: Q01DX001 (ip), vehicle: Klucel (hydroxypropylcellulose) (HPC)
[16] = dose: 100.0 mg/kg/injection, schedule: Q04DX002 (ip), vehicle: saline with Tween-80
[17] = dose: 200.0 mg/kg/injection, schedule: Q04DX002 (ip), vehicle: saline with Tween-80
[18] = dose: 400.0 mg/kg/injection, schedule: Q04DX002 (ip), vehicle: saline with Tween-80
[19] = dose: 100.0 mg/kg/injection, schedule: Q01DX009 (ip), vehicle: Klucel (hydroxypropylcellulose) (HPC)
[20] = dose: 200.0 mg/kg/injection, schedule: Q01DX009 (ip), vehicle: Klucel (hydroxypropylcellulose) (HPC)

Measured: T/C

CSc1nc(Cl)cc(N2CC2)n1
inactive: dose: 0.39 mg/kg/injection, schedule: Q01DX009 (ip), vehicle: saline 106 % of control | dose: 0.78 mg/kg/injection, schedule: Q01DX009 (ip), vehicle: saline 97 % of control | dose: 0.78 mg/kg/injection, schedule: Q04DX003 (ip), vehicle: saline 107 % of control | dose: 1.56 mg/kg/injection, schedule: Q01DX001 (ip), vehicle: saline 101 % of control | dose: 1.56 mg/kg/injection, schedule: Q04DX003 (ip), vehicle: saline 101 % of control | dose: 3.12 mg/kg/injection, schedule: Q01DX001 (ip), vehicle: saline 101 % of control | dose: 59.0 mg/kg/injection, schedule: Q01DX Z (ip), vehicle: methylcellulose (MC) 94 % of control | dose: 88.0 mg/kg/injection, schedule: Q01DX Z (ip), vehicle: methylcellulose (MC) 93 % of control

CCCCCC(C)(C1=NC(C)(C)CC(C)O1)c1ccccc1 (centres undefined)
inactive: dose: 100.0 mg/kg/injection, schedule: Q01DX009 (ip), vehicle: saline sonified 93 % of control | dose: 200.0 mg/kg/injection, schedule: Q01DX009 (ip), vehicle: saline sonified 104 % of control | dose: 400.0 mg/kg/injection, schedule: Q01DX009 (ip), vehicle: saline sonified 93 % of control

CSc1nc(Cl)nc(C(Cl)Cl)c1Cl
inactive: dose: 12.5 mg/kg/injection, schedule: Q01DX009 (ip), vehicle: other 93 % of control | dose: 25.0 mg/kg/injection, schedule: Q01DX009 (ip), vehicle: other 107 % of control | dose: 50.0 mg/kg/injection, schedule: Q01DX009 (ip), vehicle: other 89 % of control and 90 % of control

COc1ccc(CCNC(=O)Cc2ccc(O)cc2)cc1OC
inactive: [1] 100 % of control | [2] 102 % of control | [3] 96 % of control

CC(=O)OCC1OC(n2cnc3c(=O)[nH]nnc32)C(OC(C)=O)C1OC(C)=O (centres undefined)
inactive: dose: 100.0 mg/kg/injection, schedule: Q01DX005 (ip), vehicle: saline 96 % of control | dose: 100.0 mg/kg/injection, schedule: Q01DX009 (ip), vehicle: saline 94 % of control | dose: 200.0 mg/kg/injection, schedule: Q01DX005 (ip), vehicle: saline 104 % of control | dose: 200.0 mg/kg/injection, schedule: Q01DX009 (ip), vehicle: saline 92 % of control | dose: 400.0 mg/kg/injection, schedule: Q01DX009 (ip), vehicle: saline 99 % of control

COc1cc(C[N+]23CC[N+](Cc4cc(OC)c(OC)c(OC)c4)(CC2)C3)cc(OC)c1OC
inactive: [4] 101 % of control | [5] 98 % of control | [6] 95 % of control

CCOC(=O)CNC(=O)C1OC(n2cnc3c(N)ncnc32)C(O)C1O (centres undefined)
inactive: dose: 6.25 mg/kg/injection, schedule: Q01DX009 (ip), vehicle: saline 105 % of control | dose: 12.5 mg/kg/injection, schedule: Q01DX005 (ip), vehicle: saline 102 % of control | dose: 12.5 mg/kg/injection, schedule: Q01DX009 (ip), vehicle: saline 110 % of control | dose: 25.0 mg/kg/injection, schedule: Q01DX005 (ip), vehicle: saline 114 % of control

CCOC(=O)CNC(=O)CO
inactive: dose: 100.0 mg/kg/injection, schedule: Q01DX001 (ip), vehicle: other 101 % of control | dose: 200.0 mg/kg/injection, schedule: Q01DX001 (ip), vehicle: other 95 % of control | dose: 400.0 mg/kg/injection, schedule: Q01DX001 (ip), vehicle: other 101 % of control

NC(=O)C1=C(N)CCC1
inactive: [7] 100 % of control | [8] 95 % of control | [9] 97 % of control

CCOC(=O)CCC(C(=O)OCC)c1nc2ccccc2[nH]c1=O (centres undefined)
inactive: [10] 108 % of control | [11] 108 % of control | [12] 96 % of control

O=C(COc1ccc(Cl)cc1C(=O)O)NCc1ccc(NC(=O)Nc2ccc(S(=O)(=O)F)cc2Cl)cc1
inactive: [13] 102 % of control | [14] 93 % of control | [15] 89 % of control

CC(=O)CC(=O)Nc1nc2ccccc2s1
inactive: [10] 92 % of control | [11] 103 % of control | [12] 97 % of control

O=C1c2ccccc2C2C(=O)c3ccccc3C12 (centres undefined)
inactive: [7] 98 % of control | [8] 96 % of control | [9] 95 % of control

CCOc1cc2cc(C(=O)O)sc2cc1OCC
inactive: [4] 101 % of control | [5] 110 % of control | [6] 104 % of control

CCOCCOC(=O)CSCC(=O)OCCOCC
inactive: [4] 93 % of control | [5] 104 % of control | [6] 109 % of control

COC1CC(OCc2ccc(Br)cc2)C(COC(c2ccccc2)(c2ccccc2)c2ccccc2)O1 (centres undefined)
inactive: [10] 92 % of control | [11] 94 % of control | [12] 100 % of control

COC(=O)C(O)C(O)C(O)C(O)C(=O)OC (centres undefined)
inactive: dose: 50.0 mg/kg/injection, schedule: Q04DX002 (ip), vehicle: saline with Tween-80 101 % of control | [16] 96 % of control | [17] 90 % of control | [18] 93 % of control

BrCC1(c2ccccc2)OCCO1
inactive: [13] 100 % of control | [19] 89 % of control | [14] 92 % of control | [20] 89 % of control | [15] 98 % of control

CC(F)C1CCCC(F)C1 (centres undefined)
inactive: [4] 103 % of control | [5] 100 % of control | [6] 105 % of control

N=C(N)/C=C\C(=O)O
inactive: dose: 5.0 mg/kg/injection, schedule: Q01DX Z (ip), vehicle: carboxymethylcellulose (CMC) 93 % of control | dose: 10.0 mg/kg/injection, schedule: Q01DX Z (ip), vehicle: carboxymethylcellulose (CMC) 103 % of control | dose: 20.0 mg/kg/injection, schedule: Q01DX Z (ip), vehicle: carboxymethylcellulose (CMC) 101 % of control

COC1OC(CCl)C(OC(=O)c2ccccc2)C(OC(=O)c2ccccc2)C1OC(=O)c1ccccc1 (centres undefined)
inactive: dose: 100.0 mg/kg/injection, schedule: Q04DX002 (ip), vehicle: Klucel (hydroxypropylcellulose) (HPC) 114 % of control | dose: 200.0 mg/kg/injection, schedule: Q04DX002 (ip), vehicle: Klucel (hydroxypropylcellulose) (HPC) 101 % of control | dose: 400.0 mg/kg/injection, schedule: Q04DX002 (ip), vehicle: Klucel (hydroxypropylcellulose) (HPC) 104 % of control

N#CCc1cn(-c2ccccc2)nn1
inactive: dose: 9.38 mg/kg/injection, schedule: Q01DX001 (ip), vehicle: other 101 % of control | dose: 18.75 mg/kg/injection, schedule: Q01DX001 (ip), vehicle: other 96 % of control | dose: 37.5 mg/kg/injection, schedule: Q01DX001 (ip), vehicle: other 97 % of control

Cc1cc(C)c(NC(=O)CC#N)c(C)c1
inactive: [16] 90 % of control | [17] 90 % of control | [18] 90 % of control

Cc1ccc(CSc2ccc([N+](=O)[O-])cc2[N+](=O)[O-])cc1
inactive: [1] 113 % of control | [2] 98 % of control | [3] 92 % of control

CC(CNCCN)C[Si](C)(C)C (centres undefined)
inactive: dose: 4.0 mg/kg/injection, schedule: Q01DX015 (ip), vehicle: saline 101 % of control | dose: 6.25 mg/kg/injection, schedule: Q04DX003 (ip), vehicle: saline sonified 101 % of control | dose: 8.0 mg/kg/injection, schedule: Q01DX015 (ip), vehicle: saline 96 % of control | dose: 12.5 mg/kg/injection, schedule: Q04DX003 (ip), vehicle: saline sonified 97 % of control | dose: 16.0 mg/kg/injection, schedule: Q01DX015 (ip), vehicle: saline 102 % of control | dose: 25.0 mg/kg/injection, schedule: Q04DX003 (ip), vehicle: saline sonified 97 % of control | dose: 32.0 mg/kg/injection, schedule: Q01DX015 (ip), vehicle: saline 96 % of control

Oc1ccc(Cl)cc1/C=N/N1CCN(/N=C/c2cc(Cl)ccc2O)CC1
inactive: [4] 90 % of control | [5] 90 % of control | [6] 90 % of control

CCC(CC)C(=O)OCC(C)(C)C
inactive: [1] 96 % of control | [2] 104 % of control | [3] 96 % of control

CN(C)c1ncc(C(N)=O)cn1
inactive: [19] 97 % of control | [10] 100 % of control | [20] 108 % of control | [11] 96 % of control | [12] 110 % of control

c1ccc(CN2CCOCC2)nc1
inactive: [4] 96 % of control | [5] 113 % of control | [6] 98 % of control
